Measured values: patent US20260240860A1, “COMPOSITION FOR REJUVENATION OF SENESCENT CELLS OR DELAY OR PREVENTION OF CELLULAR SENESCENCE” (LONO JAEYAK INC., priority 2022, published 2026)

System: senescent human skin fibroblasts collected from newborn skin
Assay: Experiment to confirm cell division (Hoechst assay)
Format: cell-based
Details: for cell division results when the named compound replaced KU60019 (ATM kinase inhibitor) or ABT263 (Bcl-2 inhibitor) in the combinations: FIGS. 8 to 10; for cell rejuvenation effect of the five-component combination with the named compound as ATM kinase inhibitor or Bcl-2 inhibitor: FIGS. 24 and 25, ATM kinase inhibitor+ROCK inhibitor+Bcl-2 inhibitor+SIRT1 activator+AMPK activator treated together
Experimental: The human dermal fibroblasts used in the experiment were samples collected from newborn skin (PCS-201-010; ATCC), and the cells were cultured in a culture solution of DMEM [25 mM glucose, 10% FBS (S001-01; Welgene), 100 units/ml penicillin, 10 μg/ml streptomycin, and 25 ng/ml amphotericin B (LS203-01; Welgene)] under the conditions of 37° C. and 5% CO2.
After the 48th passage, ½ of the cells were cultured. When the population doubling time (DT) exceeded 14 days and the senescence-associated β-galactosidase (SA-β) ratio exceeded 95%, experiments were conducted by considering the cells as sufficiently aged.
The cell division ability of the senescent cells treated with the compounds in the above examples and comparative examples was investigated.
The cells to be used in the experiment were transplanted into a plate three days before the experiment. The cells treated with the compounds were stained with 10 μg/ml Hoechst 33342 for 30 minutes and washed twice with phosphate-buffered saline (PBS), and the amount of the cells was quantified using a plate reader (FLUOstar Omega) at wavelengths of ex/em: 355/460 nm.
FIGS. 1 to 10 show the experimental results for each example and comparative example in which human skin fibroblasts collected from newborn skin were used as senescent cells.
An additional experiment was conducted using the same method as Experimental Example 1, but with a greater variety of concentrations of the treated substances.

Row | SMILES | cell division results when the named compound replaced KU60019 (ATM kinase inhibitor) or ABT263 (Bcl-2 inhibitor) in the combinations | cell rejuvenation effect of the five-component combination with the named compound as ATM kinase inhibitor or Bcl-2 inhibitor
1 | CN(C)CC[C@H](CSc1ccccc1)Nc1ccc(S(=O)(=O)NC(=O)c2ccc(N3CCN(Cc4ccccc4-c4ccc(Cl)cc4)CC3)cc2)cc1[N+](=O)[O-] [ABT737] | the results showed the same pattern | 
2 | CNC(=O)c1ccc(-c2cnc3cnc(-c4ccccc4)cn23)cc1 [AZ32] | the results showed the same pattern | excellent cell rejuvenation effect
3 | C/C1=C\CCC2=C[C@@H](OC2=O)c2c(C)coc2C1 [linderalactone] | the results showed the same pattern | excellent cell rejuvenation effect
